Assay results reported in patent publication US11104933B1, “Compositions and methods for determining the presence of active leukocyte cells using an electrochemical assay” (Cleu Diagnostics, LLC, priority 2016, dated 2021).

Columns and labels:
[1] = tested on: leukocyte esterase (LE); test: internally calibrated electrochemical continuous enzyme assay (ICECEA) with TAPTA as enzyme substrate; format: biochemical; details: LE concentrations 0-250 μg/L, amperometric current (FIG. 4)
Procedure: ICECEAs generally follow the following method as described in U.S. 201610040209. First, an enzyme substrate (e.g. an LE and/or HNE substrate of the present disclosure) is placed in a background electrolyte. Next, a reactant or product of an enzymatic reaction of the enzyme is added to the first enzyme substrate/background electrolyte, which creates what is described as a “first assay mixture.” Current flowing through an electrode of the electrochemical assay is then measured after the first assay mixture is formed. Next, the enzyme (e.g. LE and/or HNE) is added to the “first assay mixture” to create a “second assay mixture,” and the current is measured again over a predetermined time period. Enzyme activity is determined based on the change in current over time caused by the addition of the enzyme. […]
The ICECEA includes an electrochemical measuring device. […] The current is measured through the working electrode. […]
Generally, in an ICECEA, adding the reactant/product to the enzyme substrate (in electrolyte) in the electrochemical assay system includes the following steps. […] Current flowing through an electrode of the electrochemical assay system is measured after the first aliquot is added. One or more additional aliquots of the reactant/product are added to the mixture and current flowing through an electrode of the electrochemical assay system is measured again. […]

[2] = tested on: leukocyte esterase (LE); test: screen-printed electrode strip with monoester substrate, voltammograms at varying LE concentrations; format: biochemical; details: substrate screen-printed on electrode strip; 0.125 U/m to 0.35 U/ml LE (FIG. 7)
Excerpt: In one embodiment, the substrate of the leukocyte esterase enzyme is screen-printed onto the surfaces of an electrode sensor strips using known and commercially-available techniques and materials.
Specifically, electrode strips were screen printed with the substrate having the structure as depicted in Formula V. The strips were contacted with varying concentrations of LE (i.e. 0.125 U/m to 0.35 U/ml LE).
The plot clearly indicates significant reduction peaks at about −0.17 V, which correspond to the redox reaction of hydroquinone molecules that are released upon cleavage of the monoester by leukocyte esterases at the ester active site. […] Based on this measured level, a determination can be made as to whether the patient's level of LE is high enough to indicate infection.

Row | Structure (SMILES) | response of LE enzyme activity relative to LE concentration [1] | relation of reduction peaks to LE activity in the sample [2] | melting point [°C]
1 | Cc1ccc(S(=O)(=O)N[C@@H](C)C(=O)Oc2ccc(OC(=O)[C@H](C)NS(=O)(=O)c3ccc(C)cc3)cc2)cc1 [TAPTA, 4-((tosyl-L-alanyl)oxy)phenyl tosyl-L-alaninate] | linear response relative to LE concentration |  | 
2 | COC(=O)c1cncc(S(=O)(=O)N[C@@H](C)C(=O)Oc2ccc(O)cc2)c1 [monoester] |  | directly related to the LE activity within the sample in a dose dependent manner | 113 to 116
